# Measurements from the supplement of paper PMC5579334.
# ± gives the standard deviation of the averaged measurements.
# Columns and labels:
# ST8814 [1] = assay: drug sensitivity score (DSS, CellTox-Green cytotoxicity, 72 h) (DSS (dimensionless)); higher = more cytotoxic; extreme values may be limits of the assay
# In short: (§1)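 For 72 h at 37 °C, MPNST cell lines and primary human Schwann cells were exposed in 384-well plates to five 10-fold compound dilutions. CellTox-Green, added before seeding at a final 1:1000 dilution, gave fluorescence from DNA released by disrupted cells. Signals were scaled to vehicle and positive-control wells, cultures failing plate quality control were left out, and four-parameter logistic fits were applied. Relative IC50 and drug sensitivity score were derived from the fits, with IC50 censored at the top concentration.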
# [2] = tested on: HSC1 (primary human Schwann cells); assay: as above
# In short: as §1
# [3] = tested on: HSC2 (primary human Schwann cells); assay: as above
# In short: as §1
# S1507-2 [4] = assay: as above
# In short: as §1
# STS26T [5] = assay: as above
# In short: as §1
# HS-PSS [6] = assay: as above
# In short: as §1
# ST8814 [7] = assay: drug sensitivity score (DSS, CellTiter-Glo viability, 72 h) (DSS (dimensionless)); higher = more sensitive; extreme values may be limits of the assay
# In short: (§2)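 MPNST cell lines and primary human Schwann cells were seeded at 750–1000 cells per well into 384-well plates preprinted with each compound at five concentrations in 10-fold steps, then incubated 72 h at 37 °C, 5% CO2. CellTiter-Glo ATP luminescence gave viability, scaled between vehicle and positive-control wells, with duplicates averaged where present. Curves were fitted with a four-parameter logistic model. Percent inhibition refers to the top concentration, while drug sensitivity score and relative IC50, censored at the top concentration, come from these fits.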
# [8] = tested on: HSC1 (primary human Schwann cells); assay: as above
# In short: as §2
# [9] = tested on: HSC2 (primary human Schwann cells); assay: as above
# In short: as §2
# S462 [10] = assay: as above
# In short: as §2
# S1507-2 [11] = assay: as above
# In short: as §2
# YST-1 [12] = assay: as above
# In short: as §2
# HS-Sch-2 [13] = assay: as above
# In short: as §2
# STS26T [14] = assay: as above
# In short: as §2
# HS-PSS [15] = assay: as above
# In short: as §2
# ST8814 [16] = assay: % inhibition of CellTiter-Glo viability at highest tested concentration (72 h), relative to DMSO and benzethonium chloride controls; higher = more inhibition
# In short: as §2
# [17] = tested on: HSC1 (primary human Schwann cells); assay: as above
# In short: as §2
# [18] = tested on: HSC2 (primary human Schwann cells); assay: as above
# In short: as §2
# S462 [19] = assay: as above
# In short: as §2
# S1507-2 [20] = assay: as above
# In short: as §2
# YST-1 [21] = assay: as above
# In short: as §2
# HS-Sch-2 [22] = assay: as above
# In short: as §2
# STS26T [23] = assay: as above
# In short: as §2
# HS-PSS [24] = assay: as above
# In short: as §2
Structure (SMILES),drug sensitivity score (ST8814 [1]),drug sensitivity score [2],drug sensitivity score [3],drug sensitivity score (S1507-2 [4]),drug sensitivity score (STS26T [5]),drug sensitivity score (HS-PSS [6]),drug sensitivity score (ST8814 [7]),drug sensitivity score [8],drug sensitivity score [9],drug sensitivity score (S462 [10]),drug sensitivity score (S1507-2 [11]),drug sensitivity score (YST-1 [12]),drug sensitivity score (HS-Sch-2 [13]),drug sensitivity score (STS26T [14]),drug sensitivity score (HS-PSS [15]),% inhibition (ST8814 [16]) [%],% inhibition [17] [%],% inhibition [18] [%],% inhibition (S462 [19]) [%],% inhibition (S1507-2 [20]) [%],% inhibition (YST-1 [21]) [%],% inhibition (HS-Sch-2 [22]) [%],% inhibition (STS26T [23]) [%],% inhibition (HS-PSS [24]) [%]
Cc1ccc(C(=O)N(CCCN)[C@@H](c2oc3cc(Cl)ccc3c(=O)c2Cc2ccccc2)C(C)C)cc1 (max concentration tested 100 nM),0,0,0,0,0,0,0,0,0,0,0.0057 ± 0.0081,18.9,19,0,6.42,5.16,7.2,-19.5,-2.08 ± 8.3,5.6 ± 6.5,76,87.1,2.24,26.9
CN1CCC(COc2cnc(-c3cccc(Cn4nc(-c5cccc(C#N)c5)ccc4=O)c3)nc2)CC1 (max concentration tested 1000 nM),0,0,0,0.27 ± 0.38,0.0133,0,0,0,0,2.88 ± 4.1,7.535 ± 0.062,0,0,0.286,0,9.67,6.94,8.76,12.1 ± 1.4,28.3 ± 1.1,2.87,0.48,13.9,2.35
CCc1cncnc1N1CCN(Cc2nc3ccc(C(F)(F)F)cc3[nH]2)CC1 (max concentration tested 10000 nM),0,0,0,0,0,0,0.171,0.31,0.531,0.305 ± 0.43,0.267 ± 0.38,0.69,2.07,1.12,4.22,13.6,13.9,21.4,13.2 ± 8.4,9.77 ± 2.6,22.3,47.6,19.7,64
CCn1c(-c2nonc2N)nc2cnc(Oc3cccc(NC(=O)c4ccc(OCCN5CCOCC5)cc4)c3)cc21 (max concentration tested 10000 nM),0,1.62,0.268,2.06 ± 2.4,5.6,0,2.57,16.9,18.1,3.9 ± 0.086,3.11 ± 0.81,6.84,6.03,5.65,4.2,34.9,70.6,71.3,43.6 ± 3.2,36.1 ± 2.2,49.8,58,50.7,47.1
CCn1c(C(=O)N(C2CC2)C2CC2)cc2c3c(ncn3C)c(Nc3cc(C)n(C)n3)nc21 (max concentration tested 10000 nM),0,0,0,0,0,0,0,0,0,0,0.094 ± 0.13,2.34,0.17,0,0,7.29,9.48,-0.298,0.708 ± 7.6,3.94 ± 19,29.6,16,2.67,8.84
CN(c1ccccc1CNc1nc(Nc2ccc3c(c2)CC(=O)N3)ncc1C(F)(F)F)S(C)(=O)=O (max concentration tested 10000 nM),3.58,1.33,1.33,2.52 ± 0.6,6.59,0.56,7.26,14.5,13.8,11.5 ± 0.24,7.1 ± 0.82,10.6,6.95,9.12,5.97,71.9,78.8,84,100.3 ± 0.78,71.3 ± 1.1,100,101,95.3,83.9
COc1ccc(-c2cc3c(C)nc(N)nc3n([C@H]3CC[C@H](OCCO)CC3)c2=O)cn1 (max concentration tested 10000 nM),6.06,2.35,2.71,6.9 ± 1.9,4.38,0.29,18.8,18.3,16.7,16.6 ± 2,22.5 ± 0.84,25.6,14.9,20.5,11.7,99.7,92.1,92,86.96 ± 0.63,98.4 ± 1.9,101,97.5,92.3,70.2
C[C@@]1(C(=O)Nc2ccc(F)nc2)CCCN1c1nc(Nc2cc(C3CC3)n[nH]2)c2cccn2n1 (max concentration tested 10000 nM),13,7.13,9.9,9.5 ± 0.59,11.7,3.23,13.1,14.5,16.2,15.5 ± 0.72,14.5 ± 2.5,25.8,9.41,8.67,7.91,93.2,94.8,96.7,92.1 ± 1.2,99.4 ± 1.5,74.3,89.1,64,87.3
Cc1c(Cn2c(C)nc3c(C(=O)O)cc(N4CCOCC4)cc32)cccc1C(F)(F)F (max concentration tested 10000 nM),0,0,0,0,0,0,0.197,0,0,0,3.59 ± 0.27,0,0,0.72,1.06,11.8,4.46,5.2,3.26 ± 4.3,33.6 ± 5.3,4.11,8.95,17.6,19.4
N#Cc1ccc(COC[C@H]2O[C@@H](n3c(NCc4ccc(Cl)c(Cl)c4)nc4c(N)ncnc43)[C@H](O)[C@@H]2O)cc1 (max concentration tested 10000 nM),0,0,0,0,0.0103,0,0,5.32,8,0.314 ± 0.44,0,2.63,0,3.06,0.47,8.16,41.6,44.2,11.3 ± 7.2,7.48 ± 0.46,28.8,9.8,30.7,21.7
Nc1nccc(-c2c(-c3ccc(F)cc3)ncn2C2CCCCC2)n1 (max concentration tested 10000 nM),0,0,0,0,0,0,0,0,0,0,0,3.26,0.99,0,0.55,5.9,9.97,-0.333,-4.31 ± 12,2.64 ± 7.6,33.7,29.1,1.02,21.5
Nc1ncnc2c1c(COc1cccc(Cl)c1)nn2C1CCOCC1 (max concentration tested 10000 nM),0,0,0,0.494 ± 0.64,0,0,0,0.203,0,0,0.0549 ± 0.078,0,0.64,0.587,0,5.84,11.5,-5.42,-3.41 ± 5.9,9.42 ± 7.2,9.51,12.5,18.3,7.3
O=C(Nc1ccc2[nH]nc(-c3ccncc3)c2c1)[C@@H]1CCN(CC(=O)N2CCN(c3ccc(-c4ncccn4)cc3)CC2)C1 (max concentration tested 10000 nM),10.8,0,0.0074,9.36 ± 3.5,1.59,0,16.7,10.4,10.6,20.4 ± 0.4,10.7 ± 1.2,1.98,8.78,4.44,5.75,91.2,61.3,51.2,97 ± 2.1,77.5 ± 2.5,31.8,66.4,40.4,45.2
O=C(O)c1ccc(-c2c[nH]c3ncc(-c4ccccc4)cc23)cc1C1CCCC1 (max concentration tested 10000 nM),0,0,0,0.00895 ± 0.013,0,0,0,0,0.756,0,0,0,1.47,0,0.42,7.81,8.07,18.7,4.19 ± 1.2,-2.03 ± 9.5,9.07,31,-4.89,19.2
